Measured values as given in patent US8044034B2, “Nanoparticle derivatives of gemcitabine” (Centre National de la Recherche Scientifique (C.N.R.S.), priority 2004, dated 2011).
Like-named read-outs stand apart in the source and are kept apart here. Values belong to the compound of their own block, whether it stands above or below them.

Columns and labels:
[1] = Nanoparticle size by quasi-elastic light diffusion (Coulter N4MD nanosizer); format: physicochemical
Protocol: The size of the colloidal particles obtained in example 1 were monitored by quasi-elastic light diffusion using a nanosizer (Coulter® N4MD, Coulter Electronics, Hialeah, USA).
The colloidal suspensions were diluted in MilliQ® water so that the number of particles per ml was suitable for the measuring device.

[2] = system: KB3-1; test: Cytotoxic activity, MTT test, 72 hours exposure; format: cell-based, human; settings: for IC50: KB3-1 cells, 72 hours, MTT test, concentration at which 50% of the cells are alive, read-out: CI50 (μM) after 72 hours KB3-1
Protocol: (§1) The cytotoxic activity of SQgem was evaluated on two human tumoral cell lines (KB3-1, cancer of the naso-pharynx and MCF-7, breast cancer) by exposure to SQgem for 72 hours, and compared with the activity of gemcitabine.
(§2) The lines were maintained in DMEM medium with 10% foetal calf serum, 2 mM glutamine, 50 mg/l antibiotics, at 37° C., 5% CO2, 95% humidity. The cells were seeded onto a 96 well plate in an amount of 1×10^4/well; after 24 hours, different dilutions of gemcitabine and SQgem particle were added and incubated for 72 hours. Cellular viability was then determined by the MTT test. The results are expressed as CI50, which is the concentration of the molecule at which 50% of the cells are alive.

[3] = system: MCF-7; test: Cytotoxic activity, MTT test, 72 hours exposure; format: cell-based, human; settings: concentration at which 50% of the cells are alive, read-out: CI50 (μM) after 72 hours MCF-7
Protocol: as §1, §2

[4] = system: two cell lines; test: Cytotoxic activity at different times in the presence and absence of inserts (MTT test); format: cell-based, human; settings: 100 μM SQgem nanoparticles, inserts 0.02 μm, n=3
Protocol: The cytotoxic activity of SQgem at different times was also determined by incubating 100 μM SQgem nanoparticles on two cell lines in the presence and absence of inserts (0.02 μm) (MTT test) (n=3).

[5] = Surface tension at constant surface area (Wilhemy blade tensometer); format: physicochemical; settings: aqueous solution with 10% ethanol
Protocol: The surface tension of an aqueous SQgem solution was measured at constant surface area at different concentrations using a Wilhemy blade tensometer and compared with that of a solution of gemcitabine (Gem) and 4-(N)-stearoylgemcitabine (C18gem) (Myhren F et al, Gemcitabine derivatives, US patent no. 2002/0042391).
To prepare the various dilutions of SQgem and C18gem, it was necessary to start from an ethanolic solution; the percentage of ethanol in the final solution was 10% (the presence of ethanol reduces the surface tension of water from 72 mN/m to about 50 mN/m).

[6] = concentration in final suspension 1 mg/ml
[7] = concentration in final suspension 2 mg/ml
[8] = concentration in final suspension 4 mg/ml

Mean hydrodynamic diameter (nm) [1, 6]: 217.5 ± 37.9 nm
Polydispersity index [1, 6]: 0.038
Compound: 4-(N)-squalenoyl acyclovir [SQACV]

Mean hydrodynamic diameter / size of the nanoparticles ([1]; concentration not given): 152 nm
Polydispersity index ([1]; concentration not given): 0.1
Compound: CC(C)=CCCC(C)=CCCC(C)=CCCC=C(C)CCC=C(C)CCC(=O)OC[C@@H]1CC[C@H](n2cnc3c(=O)[nH]cnc32)O1 [5′-squalenoyl-didanosine]

Mean hydrodynamic diameter / size of the nanoparticles ([1]; concentration not given): 150-170 nm
Compound: CC(C)=CCCC(C)=CCCC(C)=CCCC=C(C)CCC=C(C)CCC(=O)OC[C@H]1O[C@@H](n2cc(C)c(=O)[nH]c2=O)C[C@@H]1N=[N+]=[N-] [5′-squalenoyl-zidovudine, 3-azido-5-(5-methyl-2,4-dioxo-3,4-dihydro-2H-pyrimidin-1-yl)-tetrahydro-furan-2-yl-methyl (2S,3S,5R)-4,8,13,17,21-pentamethyl-docosa-4,8,12,16,20-pentaenoate]

Compound: Nc1ccn([C@@H]2O[C@H](CO)[C@@H](O)C2(F)F)c(=O)n1 [Gemcitabine, 2′,2′-difluoro-2′-deoxycytidine]
IC50 ([2]; Homo sapiens, KB 3-1): 50.8 ± 49.8 µM
IC50 ([3]; Homo sapiens, MCF7, MCF-7 cells): 29 ± 13.9 µM

Mean hydrodynamic diameter (nm) [1, 6]: 110.4±34.1 nm
Polydispersity index [1, 6]: 0.168
Compound: CC(C)=CCCC(C)=CCCC(C)=CCCC=C(C)CCC=C(C)CCC(=O)Nc1ccn([C@@H]2O[C@H](CO)[C@@H](O)[C@@H]2O)c(=O)n1 [SQara-C, 4-(N)-squalenoylcytarabine]

Mean hydrodynamic diameter (nm) [1, 6]: 126.2 nm
Polydispersity index [1, 6]: 0.26
Mean hydrodynamic diameter (nm) [1, 7]: 150.4 nm
Polydispersity index [1, 7]: 0.09
Mean hydrodynamic diameter (nm) [1, 8]: 171.3 nm
Polydispersity index [1, 8]: 0.08
concentration at which the surface tension is reduced (nanoparticle formation) [5]: 4 µM
Compound: CC(C)=CCCC(C)=CCCC(C)=CCCC=C(C)CCC=C(C)CCC(=O)Nc1ccn([C@@H]2O[C@H](CO)[C@@H](O)C2(F)F)c(=O)n1 [SQgem, 4-(N)-squalenoylgemcitabine]
IC50 [2]: 8.8 ± 4.1 µM
times more cytotoxic than the gemcitabine molecule ([2]; from CI50 on KB3-1 and MCF-7, 72 hours): five to seven times more toxic
IC50 ([3]; MCF-7 cells): 4.8 ± 3.9 µM
anti-cancer activity with inserts with respect to cytotoxicity tests in the absence of an insert [4]: not reduced
